Data published in patent US7977041B2, “Methods and kits for testing the efficacy of therapeutic compounds and other therapies in a three-dimensional matrix with respect to tumorous cells and tissue” (priority 2006, dated 2011).

Tested on: renal cell carcinoma tissue, Patient Sample GS-640 (kidney tissue)
Test: tumor tissue fragments in three-dimensional gel matrix: cell migration/invasion away from the fragment under chemotherapy
Type: cell-based, human
Conditions: 5 days treatment; for number of invading cells: compared with control sample at Day 5; for response of tumor sample to the drug (behavior of cells growing and invading away from the solid tumor fragment): patient renal cell carcinoma fragments in gel matrix, 37 degree Celsius, 5% CO2, compared with untreated control
Source text: FIGS. 1-8 are photographic and photomicrographic images which show, by way of example, use of the means and methods of the present invention with respect to a tissue sample removed from a patient. With respect to FIGS. 1-8, Patient Sample GS-640, comprising kidney tissue, was removed from the patient by a surgeon during surgery.
Tissue analysis and screening in accordance with the invention were requested by the surgeon, and proper consent was obtained from the patient prior to surgical removal of a sample quantity of tissue from the RHS Kidney. The patient was diagnosed with renal cell carcinoma. A tissue sample of approximately 1 gram in quantity was removed from the patient during surgery, and was placed into a 25 ml sample jar, and immersed in sterile saline. The tumor tissue was kept at 4 degrees centigrade until processed for the screening of therapeutic compounds in accordance with the means and methods of the invention. All procedures were performed under sterile conditions in a bio-safety laminar flow hood.
FIG. 1 is a photographic image showing the mechanical division of the sample into portions to be tested. The sample has been prepared by dissecting away any non viable tissue and blood prior to mincing into 1-2 mm pieces using sterile disposable scalpels.
FIG. 2 is a photographic image showing tumor sample portions which have been placed into each well of a 48 well plate, and been submersed in a gel matrix mixture according to the invention. After insertion of the portions, the mixture was allowed to form into a gel at room temperature for approximately 30 minutes. Once the gel formed around the fully immersed tumor fragments, nutrient rich media was added as a liquid overlay that permeated the entire gel and tumor fragment.
Each different chemotherapy and or dose of chemotherapy was added to a set of 6 wells out of the 48-well plate. A total of 7 different chemotherapies were assessed in this plate. One set of six wells were not treated with drug and thus acted as ‘control conditions’ for tumor fragment growth and invasion. Each of the eight vertical lanes containing six separate wells was marked with a symbol for each chemotherapy/dose used and noted correspondingly on data collection sheets. […] The plates were then placed in a conventional 37 degree Celsius incubator at 5% CO2.
This image is thus representative of all wells at Day 0 with or without chemotherapeutics. Images were made with a 400× magnification phase contrast micrograph using ZEISS camera specs.
FIG. 4 is a photomicrographic image which showing a patient control sample (no treatment) after 3 days incubation @37° C. and 5% CO2. Noteworthy is the migration of cells away from the solid tumor mass in a halo around the tumour fragment.
Noteworthy is the halo of cells and increased cell density as compared with the results shown at Day 3 of the test. The lines on the images have been drawn to show the distance measurements within which approximately 95% of the migrating cells have migrated away from the margins of the tissue sample.

Structure (SMILES) | migratory distance of cells | number of invading cells | response of tumor sample to the drug (behavior of cells growing and invading away from the solid tumor fragment)
CC(=O)O[C@@]12CO[C@@H]1C[C@H](O)[C@@]1(C)C(=O)[C@H](O)C3=C(C)[C@@H](OC(=O)[C@H](O)[C@@H](NC(=O)OC(C)(C)C)c4ccccc4)C[C@@](O)([C@@H](OC(=O)c4ccccc4)[C@H]21)C3(C)C [Docetaxol, Docetaxel] | longer migratory distance than treatment with Taxol | fewer number of invading cells than the control | moderate response
CC(=O)O[C@H]1C(=O)[C@@]2(C)[C@H]([C@H](OC(=O)c3ccccc3)[C@]3(O)C[C@H](OC(=O)[C@H](O)[C@@H](NC(=O)c4ccccc4)c4ccccc4)C(C)=C1C3(C)C)[C@]1(OC(C)=O)CO[C@@H]1C[C@@H]2O [Taxol, Paclitaxel] | – | – | a drop in both the distance and the number of cells that have grown and invaded away from the solid tumor fragment
N.N.[Cl][Pt][Cl] [Cisplatin] | – | identical in appearance and cell numbers to the control sample | failed chemotherapy
